Test results taken from US5525595A, “3- or 4-glycosyloxybenzopyran derivative and antiallergic agent containing the derivative as active ingredient” (priority 1993, dated 1996).

Tests used:
[1] = system: homologous passive cutaneous anaphylaxis (PCA) reaction; assay: Effect on homologous passive cutaneous anaphylaxis (PCA) reaction in rats; assay type: in vivo, rats (Male wistar rats); settings: Rattus norvegicus, 0.5 h; 100 mg/kg oral, 1 hour before antigen, rats; Table 3
Experimental: This experimental animal model is caused by immediate type allergic reaction, namely, antigen-antibody reaction. In the following, the method of this pharmacological test will be explained.
Method: Male wistar rats (9 weeks old) were intradermally administered 0.05 ml of anti-serum against trinitrophenylated ascaris (TNP-As) into two sites on the shaved dorsal skin. 48 hours later, 3-glycosyloxybenzopyran derivatives and 4-glycosyloxybenzopyran derivatives (test compounds) suspended in 0.5% sodium carboxymethylcellulose (CMCNa) were given orally at a dose of 100 mg/kg to the animals. 1 hour after administration of Test compounds, the animals were induced anaphylaxis by injection of saline (1 ml) dissolving 5 mg of Evans Blue and 1 mg of TNP-As into the tail vein of the animals. 30 minutes after induction of anaphylaxis, animals were anesthetized by ether and killed by bleeding, and were flayed dorsal skin. The leakage of dye was assessed by measuring the diameter (mean of shortest and longest diameter) of the blue spot on the inside surface of dorsal skin. As vehicle control group, only 0.5% CMCNa solution was administered orally, and as positive control group, Tranilast suspended in 0.5% CMCNa were administered orally at a dose of 100 mg/kg to the animals with the same method as the test compounds groups. Each experimental group consisted of 5 rats. [formula] In equation 1: A: leakage of dye in vehicle control group
B: leakage of dye in test compound group or in positive control group
The anti-allergic activity of the compounds of the present invention were compared with that of analogous compounds which were published in the Patent (EP-A-0598117) by PCA reaction. This pharmacological test was performed according to the method described in Test Example 1.

[2] = system: contact dermatitis induced by picryl chloride; assay: Effect on contact dermatitis induced by picryl chloride in mice (delayed type hypersensitization); assay type: in vivo; settings: Mus musculus; 100 mg/kg oral, ear thickness 24 hours after challenge; Table 6; read-out: Inhibition (%) against the increase of ear thickness
Experimental: The delayed type hypersensitization is inhibited by steroid, but can not be effected by known anti-allergic agents. In the following, the method of the pharmacological test will be explained.
Method: Mice, shaved their abdominal skin on previous day, were immunized by applying 0.1 ml of acetone containing 7 mg of picryl chloride to the skin of the abdomen. 7 days after immunization, the thickness of the ear was measured with a dial thickness gauge, then mice were challenged by painting 5 μl of 1% picryl chloride olive oil solution to each side skin of left ear. 24 hours after challenge, the thickness of the left ear was measured again and the increase (%) of thickness was calculated according to equation 2. The compounds of the present invention (test compounds) suspended in 0.5% CMCNa were forcibly administered orally at a dose of 100 mg/kg at 1 hour before and 16 hours after challenge. As vehicle control group, only 0.5% CMCNa solution were administered orally, and as positive control group, Prednisolone, steroid hormone, and Tranilast were administered orally at the doses of 10 mg/kg and 100 mg/kg, respectively.
Increase (%)=(A-B)/B×100 (Equation 2)
A: thickness of the ear at 24 hours after challenge
B: thickness of the ear before challenge
Inhibition(%)=(C-D)/C×100 (equation 3)
C: The increase (%) in vehicle control group
D: The increase (%) in test compounds group or positive control group

[3] = system: airway resistance in experimental asthma model; assay: Effect on experimental asthma model in guinea pigs; assay type: in vivo, guinea pigs (Male hadley); settings: Cavia porcellus; 100 mg/kg oral, OVA challenge, guinea pigs; Table 7
Experimental: The asthma is typical allergic disease and we carried out this pharmacological test by well known experimental asthma model in guinea pigs in order to confirm that the compounds of the present invention suppress the asthma. In the following, the method of the pharmacological test will be explained.
Method: Male hadley guinea pigs were immunized by intraperitoneal injection of saline (1 ml) containing 5 mg of ovalbumine (OVA) three times at interval of one week. 2 weeks after final immunization, the animals were challenged by inhalation of 1% OVA-saline solution for 1 minute and then the airway resistance of the animals were measured for 30 minutes with PULMOS-1 (Medical Interface Project Station Inc.) after the inhalation. The compounds of the present invention (test compounds) suspended in 0.5% CMCNa were given orally at a dose of 100 mg/kg. As positive control group, Disodium Cromoglicate (DSCG), well known anti-allergic agent, in saline were injected at a dose of 20 mg/kg into the vein of the animals. As vehicle control group, only 0.5% CMCNa solution were given orally. The inhibition (%) of the airway resistance in vehicle control group was calculated according to equation 5 and the result was shown in Table 7. Each experimental group consisted of 5 guinea pigs. [formula] In equation 5: A: Maximum airway resistance in vehicle control group
B: Maximum airway resistance in test compounds group or positive control group

SMILES | inhibition in vivo at 100 mg/kg [1] | inhibition in vivo at 100 mg/kg [2] | inhibition in vivo at 100 mg/kg [3]
COc1ccc2c(O)c(O[C@H]3O[C@H](COC(C)=O)[C@@H](OC(C)=O)[C@H](OC(C)=O)[C@@H]3OC(C)=O)c(=O)oc2c1 [compound 8, 7-methoxy-4-hydroxy-3-(tetra-O-acetyl-α-D-mannopyranosyloxy)-2H-1-benzopyran-2-one] | 45.2% | 45.3% | 46.7%
CCC=CCCOc1ccc2c(O[C@@H]3O[C@H](CO)[C@@H](O)[C@H](O)[C@H]3O)c(O)c(=O)oc2c1 [compound 70] | 58.5% | 57.6% | 67.7%
CCCCCCOc1ccc2c(O[C@@H]3O[C@H](CO)[C@H](O)[C@H](O)[C@H]3O)c(O)c(=O)oc2c1 [compound 120] | 64.3% | 65.2% | 78.9%
CC(C)Oc1ccc2c(O)c(O[C@@H]3O[C@H](CO)[C@@H](O)[C@H](O)[C@H]3O)c(=O)oc2c1 [compound 18] | 56.6% | 56.9% | 70.3%
COc1ccc2c(O[C@@H]3O[C@H](CO)[C@H](O)[C@H](O)[C@H]3O)c(O)c(=O)oc2c1 [compound 92] | 50.2% | 52.6% | 57.7%
O=C(Oc1ccc2c(O)c(O[C@@H]3O[C@H](CO)[C@@H](O)[C@H](O)[C@H]3O)c(=O)oc2c1)c1ccccc1 [compound 21] | 54.4% | 53.6% | 60.7%
CCCCCCOc1ccc2c(O[C@@H]3O[C@H](CO)[C@@H](O)[C@H](O)[C@H]3O)c(O)c(=O)oc2c1 [compound 121] | 63.7% | 63.7% | 75.1%
CCCCCCCCCCCCOc1ccc2c(O[C@H]3O[C@H](CO)[C@@H](O)[C@H](O)[C@@H]3O)c(OC(C)=O)c(=O)oc2c1 [compound 89] | 43.7% | 41.2% | 43.2%
COc1ccc2c(O)c(O[C@@H]3O[C@H](COC(C)=O)[C@H](OC(C)=O)[C@H](OC(C)=O)[C@H]3OC(C)=O)c(=O)oc2c1 [compound 9, 7-methoxy-4-hydroxy-3-(tetra-O-acetyl-β-D-galactopyranosyloxy)-2H-1-benzopyran-2-one] | 51.3% | 50.1% | 58.4%
CCCCCCCCOc1ccc2c(O[C@H]3O[C@H](CO)[C@@H](O)[C@H](O)[C@@H]3O)c(O)c(=O)oc2c1 [compound 80] | 50.5% | 50.3% | 63.3%
O=c1oc2cc(O)ccc2c(O[C@H]2O[C@H](CO)[C@@H](O)[C@H](O)[C@@H]2O)c1O [compound 77] | 42.7% | 39.6% | 37.3%
O=c1oc2cc(OCc3ccccc3)ccc2c(O)c1O[C@H]1O[C@H](CO)[C@@H](O)[C@H](O)[C@@H]1O [compound 31] | 46.9% | 48.6% | 53.5%
CC(C)Oc1ccc2c(O[C@@H]3O[C@H](CO)[C@H](O)[C@H](O)[C@H]3O)c(O)c(=O)oc2c1 [compound 97] | 55.7% | 58.7% | 63.2%
CCCCCCCCOc1ccc2c(O[C@@H]3O[C@H](CO)[C@@H](O)[C@H](O)[C@H]3O)c(O)c(=O)oc2c1 [compound 66] | 63.8% | 62.5% | 74.1%
